Source: patent US7989428B2, “Combined telomerase inhibitor and gemcitabine for the treatment of cancer” (Geron Corporation, priority 2006, dated 2011)

Test system: A549 tumor cells
Experiment: A549 subcutaneous mouse xenograft model, GRN163L and/or gemcitabine
Type: in vivo, mice
Settings: A549 s.c. xenograft, 60 days; gemcitabine 100 mg/kg IP, GRN163L 15 mg/kg IP
Description: In one exemplary method, gemcitabine is administered in combination with a telomerase-inhibitor oligonucleotide targeted against hTR. […] Groups of 10 mice each were treated in accordance with one of three protocols: (1) Gemcitabine (100 mg/kg, IP) was administered 2 times/week for the first 1.5 weeks, then once weekly for the remainder of the study. […] (3) The two agents were administered together according to the individual-agent protocols.

SMILES: Cl.Nc1ccn([C@@H]2O[C@H](CO)[C@@H](O)C2(F)F)c(=O)n1 (single isomer, unassigned) [gemcitabine, 2′-deoxy-2′,2′-difluorocytidine monohydrochloride ((beta)-isomer)]
- tumor growth during the treatment period: effective in preventing tumor growth
